Laboratory results taken from publication PMC10206040, “Identification of novel anti-amoebic pharmacophores from kinase inhibitor chemotypes” (Frontiers in Microbiology, 2023).
Where two headings read alike, the source gives them in different places. Each block holds one compound with its values, some of them ahead of it.

Tests used:
[1] = tested on: Acanthamoeba castellanii T4 isolate (ATCC 50370) trophozoites; assay: CellTiter-Glo 2.0 trophocidal assay, A. castellanii; assay type: cell-based; details: Acanthamoeba castellanii, ATCC50370, 72 h, read-out: Acanthamoeba castellanii EC50 ± SD
Excerpt: This isolate was purchased from American Type Culture Collection (ATCC). […] For sub-culturing, cells were mechanically harvested to detach the cells from the culture flasks.

[2] = tested on: Naegleria fowleri (ATCC 30215) trophozoites; assay: microbe, parasite or virus in culture
Protocol: Trophozoites were routinely grown axenically at 34°C, 5% CO2, in Nelson’s complete medium (NCM) in non-vented 75 cm^2 tissue culture flasks (Olympus), until the cells were 80–90% confluent. For sub-culturing, cells were placed on ice to detach the cells from the culture flasks. […] Complete NCM media is prepared by the addition of 10% fetal bovine serum (FBS) and 100 U/mL penicillin, and 100 μg/mL streptomycin antibiotics.
Trophozoites were routinely cultured as described above and only logarithmic trophozoites were used.
All assays were incubated at each of the parasites’ representative growth temperatures, described above, for 72 h. At the 72-h time point, 25 μL of CellTiter-Glo 2.0 reagent was added to all wells of the 96-well plates by hand. The plates were protected from light and contents were mixed using an orbital shaker at 300 rpm at room temperature for 2 min to induce cell lysis. After shaking, the plates were equilibrated at room temperature for 10 min to stabilize the luminescent signal. The ATP luminescent signal (relative light units; RLUs) were measured […] with a SpectraMax I3X plate reader (Molecular Devices, Sunnyvale, CA, United States). […] Values reported are from a minimum of three biological replicates with standard deviation.

[3] = tested on: Balamuthia mandrillaris (CDC:V039; ATCC 50209) trophozoites; assay: CellTiter-Glo 2.0 trophocidal assay, B. mandrillaris; assay type: cell-based
Excerpt: For sub-culturing, 0.25% Trypsin–EDTA (Gibco) cell detachment reagent was used to detach the cells from the culture flasks.

MRC5 cells = assay: Human fetal lung fibroblast (MRC5) cell cytotoxicity assay (resazurin); details: Table S2
Protocol: Intermediate plates were made as described, adding 95 μL of DMEM complete media to 5 μL of compound per well setting a 5% DMSO amount. Log-phase MRC5 cells were removed from a T-75 TC flask using TrypLE® Express (Thermo®) and dispersed by gentle pipetting. Cell density was adjusted to working concentration in prewarmed DMEM medium: 25,000 cells in 90 μL of culture were plated in 96-well transparent Nunclon plates and allowed to settle for 24 h at 37°C and 5% CO2. […] Plates were incubated for 48 h at 37°C and 5% CO2. At 4 h prior to fluorescence measurement, 20 μL of 500 μM resazurin solution was added.
A four-parameter equation was used to fit the dose–response curves and determination of EC50 by SigmaPlot ® 13.0 software. Assays were performed in duplicate at least twice for positive compounds, to achieve a minimal […] per dose response.

[4] = logarithmic trophozoites, 72 h, n = 3
[5] = Naegleria fowleri, 72 h, read-out: Naegleria fowleri EC50 ± SD, logarithmic trophozoites, 72 h, n = 3 (converted)
[6] = Balamuthia mandrillaris, ATCC50209, 72 h, logarithmic trophozoites, 72 h, n = 3, read-out: Balamuthia mandrillaris EC50 ± SD
[7] = Balamuthia mandrillaris, ATCC50209, 72 h, read-out: Balamuthia mandrillaris EC50 ± SD, logarithmic trophozoites, 72 h, n = 3 (converted)
[8] = Naegleria fowleri, ATCC30215, 72 h, read-out: Naegleria fowleri EC50 ± SD, logarithmic trophozoites, 72 h, n = 3 (converted)
[9] = Balamuthia mandrillaris, ATCC50209, 72 h, read-out: Balamuthia mandrillaris EC50 ± SD

SMILES: c1nc2c(N3CCOCC3)nc(Nc3ccsc3)nc2[nH]1 [Compound S25]
EC50 [1, 4]: > 20 µM
EC50 [2, 5]: > 20 µM
EC50 [3, 6]: > 20 µM

SMILES: CC(=O)c1ccc2c(c1)c1cc(C(C)=O)ccc1n2CCN1CC(F)C1 [Compound S39]
EC50 [1]: > 20 µM
EC50 [3, 7]: > 20 µM

SMILES: Cc1n[nH]c(Nc2cccc3c2CN(C)C3=O)c1C [Compound S8, 4-((3,4-Dimethyl-1H-pyrazol-5-yl)amino)-2-methylisoindolin-1-one]
EC50 [1]: > 20 µM
EC50 [3, 7]: > 20 µM

EC50 [2, 8]: > 20 µM
SMILES: Brc1ccc2nc(-c3ccccn3)c(Nc3ccc4c(c3)OCO4)n2c1 [Compound 3e]
EC50 [1, 4]: > 20 µM

EC50 [2, 8]: 11 ± 0.6 µM
SMILES: FC(F)(F)CNc1nc(Nc2ccsc2)nc2[nH]cnc12 [Compound 6a]

EC50 [2, 8]: > 20 µM
SMILES: COc1ccn2c(Nc3ccccc3F)c(-c3cccnc3)nc2c1 [Compound 3g, N-(2-fluorophenyl)-7-methoxy-2-(pyridin-3-yl)imidazo[1,2-a]pyridin-3-amine]
MRC5 TC50 ± Standard Deviation (MRC5 cells): 64 µM

EC50 [2, 8]: 0.02 ± 0.01 µM
SMILES: CC[C@H]1OC(=O)[C@H](C)[C@@H](O[C@H]2C[C@@](C)(OC)[C@@H](O)[C@H](C)O2)[C@H](C)[C@@H](O[C@@H]2O[C@H](C)C[C@H](N(C)C)[C@H]2O)[C@](C)(O)C[C@@H](C)CN(C)[C@H](C)[C@@H](O)[C@]1(C)O [Azithromycin, reference compound]
EC50 [1, 4]: 0.26 ± 0.14 µM
EC50 [3, 6]: > 20 µM

EC50 [2, 8]: > 20 µM
SMILES: CC(C)Nc1c(-c2ccccn2)nc2cc(C(F)(F)F)ccn12 [Compound 3f, N-(Propan-2-yl)-2-(pyridin-2-yl)-7-(trifluoromethyl)imidazo[1,2-a]pyridin-3-amine]
MRC5 TC50 ± Standard Deviation (MRC5 cells): 53 µM

SMILES: CC(=O)c1ccc2c(c1)c1cc(C(C)=O)ccc1n2CCn1ccnc1 [Compound S43]
EC50 [1]: > 20 µM
EC50 [2, 5]: > 20 µM
EC50 [3, 7]: > 20 µM

SMILES: Nc1cc(-c2cc3c4c(n[nH]c4c2)Nc2ccccc2O3)ncn1 [Compound 1b]
EC50 [1, 4]: 12 ± 8.2 µM
EC50 [3, 6]: 1.8 ± 0.46 µM

SMILES: CN1CC2(CCN(c3ncc(-c4ccc5c(Nc6cnccn6)ccnc5c4)cn3)C2)C1 [Compound 7b]
EC50 [3, 6]: 1.4 ± 0.17 µM

EC50 [2, 8]: > 20 µM
SMILES: Cn1cc(Nc2nc(NCC(F)(F)F)c3ncn(C)c3n2)cn1 [Compound 6c]

SMILES: CC(=O)c1ccc2c(c1)c1cc(C(C)=O)ccc1n2CCNC1CCCCCC1 [Compound 8h]
EC50 [3, 7]: 7.3 ± 0.38 µM

lipophilic ligand efficiency (LLE) ([2]; N. fowleri, LLE calculated as pEC50-LogD7.4): 1.40
EC50 [2, 8]: 16 ± 4.1 µM
SMILES: CN1CCN(c2ncc(-c3ccc4c(Nc5ccc(OCc6cccc(F)c6)c(Cl)c5)ccnc4c3)cn2)CC1 [Compound 7a]

SMILES: CC(=O)c1ccc2c(c1)c1cc(C(C)=O)ccc1n2CCNC1CCCC1 [Compound 8k]
EC50 [3, 7]: 7.4 ± 0.36 µM

SMILES: CC(=O)c1ccc2c(c1)c1cc(C(C)=O)ccc1n2CCOC(C)C [Compound S40]
EC50 [1]: > 20 µM
EC50 [3, 7]: > 20 µM

EC50 [2, 8]: 14 ± 5.7 µM
SMILES: c1nc2c(N3CCC3)nc(Nc3ccsc3)nc2[nH]1 [Compound 6b]

SMILES: CC(=O)c1ccc2c(c1)c1cc(C(C)=O)ccc1n2CCNCCN(C)C [Compound S42]
EC50 [1]: > 20 µM
EC50 [3, 7]: > 20 µM

SMILES: CC(C)(O)c1nn2ncccc2c1-c1ccnc(Nc2ccc(C(N)=O)cc2)n1 [Compound S27]
EC50 [1]: > 20 µM
EC50 [2, 5]: > 20 µM
EC50 [3, 9]: > 20 µM

SMILES: CC(C)(C)c1ccc(Nc2nccc(-c3c(-c4ccc(C(F)(F)F)cc4)nn4ncccc34)n2)cc1 [Compound S26]
EC50 [1]: > 20 µM
EC50 [2, 5]: > 20 µM
EC50 [3, 9]: > 20 µM

SMILES: CC(=O)c1ccc2c(c1)c1cc(C(C)=O)ccc1n2CCN1CCNCC1 [Compound S38]
EC50 [1]: > 20 µM
EC50 [2, 5]: > 20 µM
EC50 [3, 7]: > 20 µM

SMILES: CC(=O)c1ccc2c(c1)c1cc(C(C)=O)ccc1n2CCNC1CCCCC1 [Compound 8a]
EC50 [3, 7]: 6.8 ± 0.1 µM

EC50 [2, 8]: 17 ± 0.65 µM
SMILES: CC(=O)c1cc2c3cc(C(C)=O)c(O)cc3n(CCCN(C)C)c2cc1O [Compound 8e]

EC50 [2, 8]: > 20 µM
SMILES: N#Cc1cccc(-c2c[nH]c3ncc(-c4ccncc4)cc23)c1 [Compound 4f]

SMILES: c1cnn2ncc(-c3ccncc3)c2c1 [Compound S28]
EC50 [1]: > 20 µM
EC50 [2, 5]: > 20 µM
EC50 [3, 9]: > 20 µM

EC50 [2, 8]: > 20 µM
SMILES: c1nc2c(NCCN3CCCC3)nc(Nc3ccsc3)nc2[nH]1 [Compound 6d]

EC50 [2, 8]: 5.8 ± 0.22 µM
SMILES: [H]/N=C(\N/C(=N/[H])NCCCCCCNC(=N)NC(=N)Nc1ccc(Cl)cc1)Nc1ccc(Cl)cc1 [Chlorhexidine, reference compound]
EC50 [1, 4]: 11 ± 3.5 µM
EC50 [3, 6]: 1.6 ± 0.17 µM

EC50 [2, 8]: 8.8 ± 0.71 µM
SMILES: CC(=O)c1cc2c3cc(C(C)=O)c(O)cc3n(CCNC(C)C)c2cc1O [Compound 8b]
EC50 [3, 6]: 11 ± 0.35 µM

SMILES: CC(=O)c1ccc2c(c1)c1cc(C(C)=O)ccc1n2-c1ccc(N(C)C)cc1 [Compound S37]
EC50 [1, 4]: > 20 µM
EC50 [2, 5]: > 20 µM
EC50 [3, 6]: > 20 µM

SMILES: N=C(N)c1ccc(OCCCCCOc2ccc(C(=N)N)cc2)cc1 [Pentamidine, reference compound]
EC50 [1, 4]: 4.2 ± 0.08 µM
EC50 [2, 8]: > 50 µM
EC50 [3, 6]: 18.4 ± 1.47 µM

EC50 [2, 8]: 17 ± 0.2 µM
SMILES: CC(=O)c1ccc2c(c1)c1cc(C(C)=O)ccc1n2CCCN(C)C [Compound 8f]
EC50 [3, 6]: 19 ± 1.1 µM

SMILES: Cc1n[nH]c(Nc2cccc3c2CCO3)c1C [Compound S6, N-(2,3-Dihydrobenzofuran-4-yl)-3,4-dimethyl-1H-pyrazol-5-amine]
EC50 [1]: > 20 µM
EC50 [3, 7]: > 20 µM

SMILES: CN1C[C@@H]2C[C@H]1CN2c1ncc(-c2ccc3c(Nc4cnccn4)ccnc3c2)cn1 [Compound S34]
EC50 [1, 4]: > 20 µM
EC50 [2, 5]: > 20 µM
EC50 [3, 6]: > 20 µM

SMILES: CC(=O)c1ccc2c(c1)c1cc(C(C)=O)ccc1n2CCN1CC(N(C)C)C1 [Compound S41]
EC50 [1]: > 20 µM
EC50 [3, 7]: > 20 µM

EC50 [2, 8]: ≤ 14 µM
EC50 ([2]; read-out: Naegleria fowleri EC50 ± SD, logarithmic trophozoites, 72 h, n = 3): 8.4 ± 0.71 µM
SMILES: Cn1cc(-c2cnc3[nH]cc(-c4cccnc4)c3c2)cn1 [Compound 4d]

SMILES: CC(=O)c1ccc2c(c1)c1cc(C(C)=O)ccc1n2CCN1CCOC[C@H]1C [Compound 8l]
EC50 [3, 7]: 12 µM
EC50 ([3]; read-out: Balamuthia mandrillaris EC50 ± SD, logarithmic trophozoites, 72 h, n = 3): 13 ± 0.35 µM

EC50 [2, 8]: > 20 µM
SMILES: c1cnc(Nc2ccnc3cc(C4CCCNC4)ccc23)cn1 (stereo not shown) [Compound S18, 7-(Piperidin-3-yl)-N-(pyrazin-2-yl)quinolin-4-amine]
EC50 [1, 4]: > 20 µM
EC50 [3, 6]: > 20 µM

SMILES: Cn1cc(-c2ccnc3[nH]c(-c4ccc(C5CCCN5)cc4)cc23)cn1 (stereo not shown) [Compound 5b]
EC50 [3, 7]: 7.25 ± 0.7 µM

SMILES: CC(=O)c1ccc2c(c1)c1cc(C(C)=O)ccc1n2CCN1CCCCC1 [Compound 8d]
EC50 [2, 5]: 4.3 ± 0.22 µM
EC50 [3, 7]: 12 ± 0.26 µM

SMILES: CCC(C)(C)C(=O)O[C@H]1C[C@@H](C)C=C2C=C[C@H](C)[C@H](CC[C@@H]3C[C@@H](O)CC(=O)O3)[C@H]21 [Simvastatin, reference compound]
EC50 [3, 6]: 6.9 ± 0.04 µM

SMILES: CN1CCCN(c2ncc(-c3ccc4c(Nc5cnccn5)ccnc4c3)cn2)CC1 [Compound S33]
EC50 [1, 4]: > 20 µM
EC50 [2, 5]: > 20 µM
EC50 [3, 6]: > 20 µM

SMILES: Cn1cc(-c2ccnc3[nH]c(-c4ccc(C(N)=O)cc4)cc23)cn1 [Compound 5e]
EC50 [3, 7]: 1.8 ± 0.24 µM

SMILES: N#Cc1cccc(Nc2nccc(-c3c(CO)nn4nc(N5CCOCC5)ccc34)n2)c1 [Compound S29]
EC50 [1]: > 20 µM
EC50 [2, 5]: > 20 µM
EC50 [3, 9]: > 20 µM

SMILES: CC(=O)c1ccc2c(c1)c1cc(C(C)=O)ccc1n2CCN1CC(C)C1 [Compound 8i]
EC50 [2, 5]: 18 ± 0.45 µM
EC50 [3, 7]: 7.3 ± 0.28 µM

SMILES: CC(=O)c1ccc2c(c1)c1cc(C(C)=O)ccc1n2CCN1CCCOCC1 [Compound 8j]
EC50 [2, 5]: 10 ± 1.4 µM
EC50 [3, 7]: 3.3 ± 0.24 µM

SMILES: CN1C[C@H]2C[C@@H]1CN2c1ncc(-c2ccc3c(Nc4cnccn4)ccnc3c2)cn1 [Compound S36]
EC50 [1, 4]: > 20 µM
EC50 [2, 5]: > 20 µM
EC50 [3, 6]: > 20 µM

SMILES: CN1CCC2(CC1)CCN(c1ncc(-c3ccc4c(Nc5cnccn5)ccnc4c3)cn1)CC2 [Compound S35]
EC50 [1, 4]: > 20 µM
EC50 [2, 5]: > 20 µM
EC50 [3, 6]: > 20 µM
